Tests used:
[1] = molecular target: FGFR1 kinase (Homo sapiens (Human), UniProt P11362); assay: FGFR1 TR-FRET kinase assay; assay type: biochemical; settings: for IC50: 13 μM ATP, read-out: IC50 of FGFR1 inhibition
Protocol: Compounds were screened in the TR-FRET assay with FGFR1 kinase. 5 ng of FGFR1 [Upstate, USA] kinase was used for assay. The compound was incubated with the kinase for 30 minutes at RT. After the incubation, substrate mix [40 nM Ultra light poly GT (Perkin Elmer, USA) and 13 μM ATP (Sigma)] was added. The above reaction was stopped by the addition of 40 mM EDTA after the […] kinase reaction. The Eu-labelled antiphospho-tyrosine antibody [Perkin Elmer, USA] was added at 0.5 nM and the fluorescence emission at 615 nm/665 nm [excitation at 340 nm] was measured. The compounds were initially screened at 100 nM and 1 μM concentrations. The compounds with >50% inhibition at 100 nM of FGFR1 were taken for the full dose response studies. The final DMSO concentration in the assay was 1%. For IC50 determination, ⅓^rd serial dilution was made from the 20 mM DMSO stock solution. 2 μl of these were transferred to the test wells containing 20 μl of the reaction mixture [total reaction volume 20 μl]. The fluorescence was measured in Perkin Elmer Wallac 1420 Multilabel Counter Victor 3. The IC50 was determined by fitting the dose response data to sigmoidal curve fitting equation using GraphPad Prism software V5.

[2] = molecular target: c-Met kinase (Homo sapiens (Human), UniProt P08581); assay: c-Met TR-FRET kinase assay; assay type: biochemical; settings: 1000 nM compound
Protocol: Compounds were screened in the TR-FRET assay with c-Met kinase. 0.1 ng of c-Met [expressed in-house] kinase was used for assay. The compound was incubated with the kinase for 60 min at RT. After the incubation, substrate mix [40 nM Ultra light poly GT (Perkin Elmer, USA) and 10 μM ATP (Sigma)] was added. The above reaction was stopped by the addition of 40 mM EDTA after the 30 min kinase reaction. The Eu-labelled antiphospho-tyrosine antibody [Perkin Elmer, USA] was added at 0.5 nM and the fluorescence emission at 615 nm/665 nm [excitation at 340 nm] was measured. The compounds were initially screened at 100 nM and 1 μM concentrations. The compounds with >50% inhibition at 100 nM of c-Met were taken for the full dose response studies. The final DMSO concentration in the assay was 1%. For IC50 determination, ⅓rd serial dilution was made from the 20 mM DMSO stock solution. 2 μl of these were transferred to the test wells containing 20 μl reaction mixture [total reaction volume 20 μl]. The fluorescence was measured in Perkin Elmer Wallac 1420 Multilabel Counter Victor 3. The IC50 was determined by fitting the dose response data to sigmoidal curve fitting equation using GraphPad Prism software V5.

FGFR1 kinase, sequence (P11362 22-822): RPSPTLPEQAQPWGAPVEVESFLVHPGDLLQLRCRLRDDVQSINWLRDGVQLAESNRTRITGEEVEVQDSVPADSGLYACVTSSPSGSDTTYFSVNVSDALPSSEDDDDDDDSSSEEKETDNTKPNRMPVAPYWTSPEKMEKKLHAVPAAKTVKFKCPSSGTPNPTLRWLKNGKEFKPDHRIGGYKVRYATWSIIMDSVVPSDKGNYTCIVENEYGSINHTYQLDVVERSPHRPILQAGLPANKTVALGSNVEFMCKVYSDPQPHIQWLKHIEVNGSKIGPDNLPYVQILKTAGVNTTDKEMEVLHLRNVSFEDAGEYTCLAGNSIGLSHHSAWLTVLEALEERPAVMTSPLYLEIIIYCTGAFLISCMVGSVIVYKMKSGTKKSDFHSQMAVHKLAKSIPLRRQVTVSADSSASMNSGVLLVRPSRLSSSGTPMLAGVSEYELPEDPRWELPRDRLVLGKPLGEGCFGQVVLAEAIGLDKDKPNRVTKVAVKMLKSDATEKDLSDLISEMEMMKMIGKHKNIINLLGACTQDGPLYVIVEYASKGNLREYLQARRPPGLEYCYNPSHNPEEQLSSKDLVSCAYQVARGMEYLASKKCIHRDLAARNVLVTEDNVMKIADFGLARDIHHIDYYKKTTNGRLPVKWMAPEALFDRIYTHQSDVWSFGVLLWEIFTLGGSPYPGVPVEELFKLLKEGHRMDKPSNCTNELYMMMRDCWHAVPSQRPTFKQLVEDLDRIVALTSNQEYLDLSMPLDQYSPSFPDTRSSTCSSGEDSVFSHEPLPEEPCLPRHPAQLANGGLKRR
c-Met kinase, sequence (P08581 25-1390): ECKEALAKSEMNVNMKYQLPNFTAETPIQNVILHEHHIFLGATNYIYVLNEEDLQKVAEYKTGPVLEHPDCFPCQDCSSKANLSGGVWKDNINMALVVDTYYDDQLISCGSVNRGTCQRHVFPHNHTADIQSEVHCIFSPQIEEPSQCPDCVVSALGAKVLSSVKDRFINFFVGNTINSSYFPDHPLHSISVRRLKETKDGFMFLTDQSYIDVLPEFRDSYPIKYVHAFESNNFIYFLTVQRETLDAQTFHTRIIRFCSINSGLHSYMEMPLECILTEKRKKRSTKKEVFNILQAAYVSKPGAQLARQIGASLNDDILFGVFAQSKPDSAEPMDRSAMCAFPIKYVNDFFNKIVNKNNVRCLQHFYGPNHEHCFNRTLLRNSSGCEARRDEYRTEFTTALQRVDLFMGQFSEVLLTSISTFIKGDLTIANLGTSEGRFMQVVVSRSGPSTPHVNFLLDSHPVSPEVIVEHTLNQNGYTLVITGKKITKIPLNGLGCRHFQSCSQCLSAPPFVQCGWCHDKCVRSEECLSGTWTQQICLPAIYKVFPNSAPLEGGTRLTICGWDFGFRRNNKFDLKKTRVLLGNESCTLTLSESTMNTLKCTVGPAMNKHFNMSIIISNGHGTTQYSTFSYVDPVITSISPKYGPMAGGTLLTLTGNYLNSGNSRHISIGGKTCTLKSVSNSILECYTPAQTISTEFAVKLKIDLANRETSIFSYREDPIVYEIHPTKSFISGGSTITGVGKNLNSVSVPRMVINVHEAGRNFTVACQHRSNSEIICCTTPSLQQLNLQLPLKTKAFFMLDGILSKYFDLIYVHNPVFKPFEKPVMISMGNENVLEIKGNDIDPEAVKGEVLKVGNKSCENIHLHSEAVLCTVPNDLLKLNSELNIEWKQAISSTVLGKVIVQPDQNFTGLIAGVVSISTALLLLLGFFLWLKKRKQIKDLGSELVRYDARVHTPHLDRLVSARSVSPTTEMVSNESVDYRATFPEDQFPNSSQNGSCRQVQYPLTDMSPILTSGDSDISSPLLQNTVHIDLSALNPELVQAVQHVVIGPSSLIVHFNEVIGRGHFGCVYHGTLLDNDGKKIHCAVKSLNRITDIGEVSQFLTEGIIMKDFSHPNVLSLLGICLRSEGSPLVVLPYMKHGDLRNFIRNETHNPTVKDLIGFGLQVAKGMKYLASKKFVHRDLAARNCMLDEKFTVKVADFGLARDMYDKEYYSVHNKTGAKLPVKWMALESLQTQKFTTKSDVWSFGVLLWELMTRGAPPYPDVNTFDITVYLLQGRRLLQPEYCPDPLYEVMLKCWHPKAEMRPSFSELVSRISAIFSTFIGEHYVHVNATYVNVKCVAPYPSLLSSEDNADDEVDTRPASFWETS

Structure (SMILES) | inhibition at 1 µM ([1]; 1000 nM compound) | IC50 [1] | inhibition at 1 µM [2] | Inhibition (%) of FGFR1 at 1000 nM ([1]; 1000 nM compound)
CC(=O)Nc1cc(-c2ccc(F)cc2F)cc(-n2cnc3cc(-c4cnn(C)c4)cnc32)c1 [Example 131, N-(2′,4′-difluoro-5-(6-(1-methyl-1H-pyrazol-4-yl)-3H-imidazo[4,5-b]pyridin-3-yl)biphenyl-3-yl)acetamide] | 99% | 1.3 nM | 15% | –
CC(C)n1cc(-c2ccc3c(c2)ncn3-c2cc(NS(=O)(=O)C3CC3)cc(-c3ccc(F)cc3F)c2)cn1 [Example 204, N-(2′,4′-difluoro-5-(5-(1-isopropyl-1H-pyrazol-4-yl)-1H-benzo[d]imidazol-1-yl)-[1,1′-biphenyl]-3-yl)cyclopropanesulfonamide] | 98% | 20 nM | – | –
CC(=O)Nc1cc(-c2ccc(F)cc2F)cc(-n2cnc3cc(C4=NCCN4)ccc32)c1 [Example 169, N-(5-(5-(4,5-dihydro-1H-imidazol-2-yl)-1H-benzo[d]imidazol-1-yl)-2′,4′-difluoro-[1,1′-biphenyl]-3-yl)acetamide] | 89% | 94 nM | – | –
Cn1cc(-c2ccc3c(c2)ncn3-c2cc(NS(=O)(=O)C3CC3)cc(-c3ccc(F)cc3F)c2)cn1 [Example 5, N-(2′,4′-difluoro-5-(5-(1-methyl-1H-pyrazol-4-yl)-1H-benzo[d]imidazol-1-yl)-biphenyl-3-yl)cyclopropanesulfonamide] | 95% | 12 nM | 7% | –
COc1ccc(-c2cc(NC(C)=O)cc(-n3cnc4cc(-c5cnn(C)c5)ccc43)c2)cn1 [Example 158, N-(3-(6-methoxypyridin-3-yl)-5-(5-(1-methyl-1H-pyrazol-4-yl)-1H-benzo[d]-imidazol-1-yl)phenyl)acetamide] | 95% | 22 nM | 12% | –
O=C(Nc1cc(-c2ccc(F)cc2F)cc(-n2cnc3cc(-n4cccn4)ccc32)c1)NC1CCCC1 [Example 38, 1-(5-(5-(1H-pyrazol-1-yl)-1H-benzo[d]imidazol-1-yl)-2′,4′-difluorobiphenyl-3-yl)-3-cyclopentylurea] | 88% | 33 nM | 0% | –
CC(=O)Nc1cc(-n2cccn2)cc(-n2cnc3cc(-c4cnn(CC5CC5)c4)ccc32)c1 [Example 127, N-(3-(5-(1-(cyclopropylmethyl)-1H-pyrazol-4-yl)-1H-benzo[d]imidazol-1-yl)-5-(1H-pyrazol-1-yl)phenyl)acetamide] | 91% | 62 nM | 10% | –
CS(=O)(=O)Nc1cc(-c2ncccc2F)cc(-n2cnc3cc(-c4cnn(CCN5CCOCC5)c4)ccc32)c1 [Example 294, N-(3-(3-fluoropyridin-2-yl)-5-(5-(1-(2-morpholinoethyl)-1H-pyrazol-4-yl)-1H-benzo[d]imidazol-1-yl)phenyl)methane sulphonamide] | 99% | 9.3 nM | – | –
Cn1cc(-c2cnc3c(c2)ncn3-c2cc(NS(=O)(=O)NC3CC3)cc(-c3ccc(F)cc3F)c2)cn1 [Example 244, N-cyclopropyl-N′-(2′,4′-difluoro-5-(6-(1-methyl-1H-pyrazol-4-yl)-3H-imidazo[4,5-b]pyridin-3-yl)-[1,1′-biphenyl]-3-yl)-sulfuric diamide] | 98% | 14 nM | – | –
CC(=O)Nc1cc(-n2cccc2)cc(-n2cnc3cc(-c4cn(CCC(C)(C)O)nn4)ccc32)c1 [Example 112, N-(3-(5-(1-(3-hydroxy-3-methylbutyl)-1H-1,2,3-triazol-4-yl)-1H-benzo[d]-imidazol-1-yl)-5-(1H-pyrrol-1-yl)phenyl)acetamide] | 97% | 1.8 nM | 0% | –
COc1ccc(-c2ccc3c(c2)ncn3-c2cc(NC(C)=O)cc(-c3ccc(F)cc3)c2)cn1 [Example 69, N-(4′-fluoro-5-(5-(6-methoxypyridin-3-yl)-1H-benzo[d]imidazol-1-yl)biphenyl-3-yl)acetamide] | 87% | 22 nM | -2% | –
O=C(CN1CCCCC1)Nc1cc(-c2ccc(F)cc2F)cc(-n2cnc3cc(-n4cccn4)ccc32)c1 [Example 259, N-(5-(5-(1H-pyrazol-1-yl)-1H-benzo[d]imidazol-1-yl)-2′,4′-difluoro-[1,1′-biphenyl]-3-yl)-2-(piperidin-1-yl)acetamide] | 92% | 45 nM | – | –
CNS(=O)(=O)N(C)c1cc(-c2ccc(F)cc2F)cc(-n2cnc3cc(-c4cnn(C(C)C)c4)cnc32)c1 [Example 217, N-(2′,4′-difluoro-5-(6-(1-isopropyl-1H-pyrazol-4-yl)-3H-imidazo[4,5-b]pyridin-3-yl)-[1,1′-biphenyl]-3-yl)-N,N′-dimethylsulfuric diamide] | 91% | 10.4 nM | – | –
O=S(=O)(Nc1cc(C2=CC=C(F)CC2F)cc(-n2cnc3cc(N4CCC(O)C4)ccc32)c1)C1CC1 (centres unmarked) [Example 322, N-(2′,4′-difluoro-5-(5-(3-hydroxypyrrolidin-1-yl)-1H-benzo[d]imidazol-1-yl)-2′,3′-dihydro-[1,1′-biphenyl]-3-yl)cyclopropanesulfonamide] | 92% | 65.8 nM | – | –
CN1CCC(C(=O)Nc2cc(-c3ccc(F)cc3F)cc(-n3cnc4cc(-c5cnn(C)c5)cnc43)c2)CC1 [Example 319, N-(2′,4′-difluoro-5-(6-(1-methyl-1H-pyrazol-4-yl)-3H-imidazo[4,5-b]pyridin-3-yl)-[1,1′-biphenyl]-3-yl)-1-methylpiperidine-4-carboxamide] | 97% | 18 nM | – | –
Cn1cc(-c2ccc3c(c2)ncn3-c2cc(NC(=O)Cn3cncn3)cc(-c3ccc(F)cc3F)c2)cn1 [Example 241, N-(2′,4′-difluoro-5-(5-(1-methyl-1H-pyrazol-4-yl)-1H-benzo[d]imidazol-1-yl)-[1,1′-biphenyl]-3-yl)-2-(1H-1,2,4-triazol-1-yl) acetamide] | – | 2.9 nM | – | 97%
CC(=O)Nc1cc(-c2ccc(F)cc2)cc(-n2cnc3cc(-c4cnn(CCC(C)(C)O)c4)ccc32)c1 [Example 220, N-(4′-fluoro-5-(5-(1-(3-hydroxy-3-methylbutyl)-1H-pyrazol-4-yl)-1H-benzo[d]-imidazol-1-yl)-[1,1′-biphenyl]-3-yl) acetamide] | 97% | 3.4 nM | – | –
Cn1cc(-c2ccc3c(c2)ncn3-c2cc(Nc3nccs3)cc(-c3ccc(F)cc3F)c2)cn1 [Example 281, N-(2′,4′-difluoro-5-(5-(1-methyl-1H-pyrazol-4-yl)-1H-benzo[d]imidazol-1-yl)-[1,1′-biphenyl]-3-yl) thiazol-2-amine] | 96% | 9 nM | – | –
COc1ccc(-c2cc(NC(C)=O)cc(-n3cnc4cc(-c5cnn(C)c5)ccc43)c2)c(F)c1 [Example 190, N-(2′-fluoro-4′-methoxy-5-(5-(1-methyl-1H-pyrazol-4-yl)-1H-benzo[d]imidazol-1-yl)-[1,1′-biphenyl]-3-yl)acetamide] | 96% | 4.3 nM | – | –
O=c1ccc(-c2ccc3c(c2)ncn3-c2cc(NS(=O)(=O)C3CC3)cc(-c3ccc(F)cc3F)c2)c[nH]1 [Example 289, N-(2′,4′-difluoro-5-(5-(6-oxo-1,6-dihydropyridin-3-yl)-1H-benzo[d]imidazol-1-yl)-[1,1′-biphenyl]-3-yl)cyclopropanesulfonamide] | 94% | 32 nM | – | –
Cn1cc(-c2ccc3c(c2)ncn3-c2cc(Nc3ncccn3)cc(-c3ccc(F)cc3F)c2)cn1 [Example 280, N-(2′,4′-difluoro-5-(5-(1-methyl-1H-pyrazol-4-yl)-1H-benzo[d]imidazol-1-yl)-[1,1′-biphenyl]-3-yl)pyrimidin-2-amine] | 80% | 90 nM | – | –
CC(=O)Nc1cc(-c2ccc(F)cc2F)cc(-n2cnc3cc(-c4ccc(F)nc4)cnc32)c1 [Example 178, N-(2′,4′-difluoro-5-(6-(6-fluoropyridin-3-yl)-3H-imidazo[4,5-b]pyridin-3-yl)-[1,1′-biphenyl]-3-yl)acetamide] | 86% | 14.9 nM | – | –
CC(=O)Nc1cc(-c2ccc(F)cc2)cc(-n2cnc3cc(-c4ccc(F)nc4)ccc32)c1 [Example 170, N-(4′-fluoro-5-(5-(6-fluoropyridin-3-yl)-1H-benzo[d]imidazol-1-yl)-[1,1′-biphenyl]-3-yl)acetamide] | 92% | 59 nM | – | –
